Values belong to the compound of their own block, whether it stands above or below them.
Columns and labels:
[1] = target: T1, membrane-bound A-protein (Am), purified from bovine rod outer segments, N-terminus SEQ ID NO:1 (Bos taurus, UniProt P21457); test: ATPase assay (hydrolysis of [γ-32P]ATP); format: biochemical; details: double reciprocal plots and regression analysis
T1 sequence (P21457 2-202): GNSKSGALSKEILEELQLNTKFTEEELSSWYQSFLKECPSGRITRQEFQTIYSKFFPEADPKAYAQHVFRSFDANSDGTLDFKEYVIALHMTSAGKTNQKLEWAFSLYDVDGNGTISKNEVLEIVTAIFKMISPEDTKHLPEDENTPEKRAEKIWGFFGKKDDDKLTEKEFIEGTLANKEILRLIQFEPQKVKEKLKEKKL
Procedure: (§1) GTP (2.8 Ci/mmol) or 88.8 to 177.5 nM [γ-^32P] […] The stripped ROS membranes (containing rhodopsin as the receptor) were prepared by washing ROS membranes 3 times in buffer C(100 mM NaCl, 20 mM Tris-HCl, pH 7.0, 1 mM MgCl2) and 3 times in water containing 0.01% polyoxyethylene 23 lauryl ether (Brij 35™ nonionic detergent, Sigma Chemical Co.). The stripped membranes were resuspended in buffer D (10 mM Tris-HCl, pH 7.0, 0.1 mM EGTA) prior to use.
(§2) Samples were incubated at room temperature for 5 minutes and quenched with 200 µl ice-cold quench buffer ([…] KH2PO4, 6% Norite A, 10% TCA). The samples were kept on ice for 30 minutes and spun down for 5 minutes in a microcentrifuge. 50 µl aliquots of each supernatant were placed in a vial with 5 ml scintillation fluid and assayed for radioactivity. The hydrolysis of [γ-^32P]-GTP was measured in the presence and absence of photolyzed rhodopsin.
Km and Vmax were determined by construction of double reciprocal plots and regression analysis.

[2] = target: transducin (Tα) (Bos taurus, UniProt P04695); test: GTPase assay, comparison protein; format: biochemical; details: mol/mol basis, submaximal velocity, in the presence of photoactivated rhodopsin
Procedure: as §1, §2
The GTPase rates for Am and transducin are additive when the two purified proteins are present in approximately equimolar concentrations.

[3] = target: T1, membrane-bound A-protein (Am), purified from bovine rod outer segments, N-terminus SEQ ID NO:1; test: GTPase assay (hydrolysis of [γ-32P]GTP); format: biochemical
Procedure: as §1, §2
The apparent Michaelis constant was determined for As and Am by measuring the rate of GTP hydrolysis over a thousand-fold range of substrate concentrations. Km and Vmax were determined by construction of double reciprocal plots and regression analysis.

[4] = target: T2, soluble A-protein (As), purified from bovine rod outer segments, N-terminus SEQ ID NO:2 (Bos taurus, UniProt P21457); test: GTP analog binding assay (nitrocellulose filtration); details: 30 minutes, no cofactors
T2 sequence (P21457 2-202): T1 sequence (P21457 2-202)
Procedure: (§3) Assays of the binding of the GTP-analogs Gpp(NH)p and GTPγS (New England Nuclear) by both Am and AS were performed according to the methods of Northup et al. (J. Biol. Chem., 257:11416-11423 (1982)). Binding was carried out in a total volume of 100 µl of solution containing 5 to 10 µg purified A-protein, 15.3 µM 3H-Gpp(NH)p (10 µCi) or 1.32 µM GTPγS^35 (1 µCi) and buffer (100 mM NaCl, 0.1 mM EDTA, 20 mM Tris-HCl, pH 7.0). The samples were vortexed and incubated at 25°C for 30 minutes, quenched with 200 µl ice-cold buffer (0.5 M NaCl, 0.1 M Tris-HCl, 0.1% Tween 80™), and kept on ice for 30 minutes. The samples were placed onto nitrocellulose filters that had been previously washed with 2 ml of the same buffer. The filters were rinsed 5 times with 2 ml ice-cold buffer and assayed for radioactivity.

[5] = target: T1, membrane-bound A-protein (Am), purified from bovine rod outer segments, N-terminus SEQ ID NO:1; test: as above; details: 30 minutes, no cofactors
Procedure: as §3

Sequence of transducin (Tα) (P04695 2-350 limits assumed): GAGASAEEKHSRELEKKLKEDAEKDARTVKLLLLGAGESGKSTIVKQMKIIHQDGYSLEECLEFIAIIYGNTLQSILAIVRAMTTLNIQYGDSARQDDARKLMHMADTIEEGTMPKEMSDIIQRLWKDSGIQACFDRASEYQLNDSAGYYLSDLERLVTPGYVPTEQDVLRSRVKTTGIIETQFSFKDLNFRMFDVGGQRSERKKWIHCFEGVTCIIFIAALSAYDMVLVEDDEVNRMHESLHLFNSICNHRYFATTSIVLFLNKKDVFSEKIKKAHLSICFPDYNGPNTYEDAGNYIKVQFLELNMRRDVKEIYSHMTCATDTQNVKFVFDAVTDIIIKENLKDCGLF

SMILES: Nc1ncnc2c1ncn2[C@@H]1O[C@H](COP(=O)(O)OP(=O)(O)OP(=O)(O)O)[C@@H](O)[C@H]1O [ATP, adenosine triphosphate]
Vmax:Am ATPase [1]: 2.90 (±0.16) pmol/mg A-protein min^-1

rate of GTP hydrolysis by transducin [2]: 0.512 GTP sec^-1/Tα
Vmax:Am GTPase ([3]; double reciprocal plots and regression analysis): 16.4 nmol/mgAmmin^-1
rate of GTP hydrolysis by Am ([3]; mol/mol basis, submaximal velocity, in the presence of photoactivated rhodopsin): 0.458 GTP sec^-1/Am
SMILES: Nc1nc2c(ncn2[C@@H]2O[C@H](COP(=O)(O)OP(=O)(O)OP(=O)(O)O)[C@@H](O)[C@H]2O)c(=O)[nH]1 [GTP, guanosine triphosphate]

SMILES: Nc1nc2c(ncn2[C@@H]2O[C@H](COP(=O)(O)OP(=O)(O)OP(O)(O)=S)[C@@H](O)[C@H]2O)c(=O)[nH]1 [GTPγS]
GTPγS bound by As ([4]; 1.32 µM GTPγS35, 25°C): 0.47 mol GTP Analog/mol Protein
GTPγS bound by Am ([5]; 1.32 µM GTPγS35, 25°C): 0.93 mol GTP Analog/mol Protein

Gpp(NH)p bound by As ([4]; 15.3 µM 3H-Gpp(NH)p, 25°C): 0.29 ± 0.08 mol GTP Analog/mol Protein
Gpp(NH)p bound by Am ([5]; 15.3 µM 3H-Gpp(NH)p, 25°C): 0.57 ± 0.12 mol GTP Analog/mol Protein
SMILES: Nc1nc2c(ncn2[C@@H]2O[C@H](COP(=O)(O)OP(=O)(O)NP(=O)(O)O)[C@@H](O)[C@H]2O)c(=O)[nH]1 [Gpp(NH)p]
